Read-outs that look alike come from different tables or passages of the source.
How the values were obtained:
B1R of the rat = target: T1, B1R of the rat (Rattus norvegicus, UniProt P97583); assay: FLIPR Ca2+ influx assay, B1R antagonism, rat (rB1R CHO K1 cells); type: cell-based
T1 construct: expressed in transfected cells; host or cells: CHO K1 cells (rB1R cells)
T1 sequence (P97583 1-337): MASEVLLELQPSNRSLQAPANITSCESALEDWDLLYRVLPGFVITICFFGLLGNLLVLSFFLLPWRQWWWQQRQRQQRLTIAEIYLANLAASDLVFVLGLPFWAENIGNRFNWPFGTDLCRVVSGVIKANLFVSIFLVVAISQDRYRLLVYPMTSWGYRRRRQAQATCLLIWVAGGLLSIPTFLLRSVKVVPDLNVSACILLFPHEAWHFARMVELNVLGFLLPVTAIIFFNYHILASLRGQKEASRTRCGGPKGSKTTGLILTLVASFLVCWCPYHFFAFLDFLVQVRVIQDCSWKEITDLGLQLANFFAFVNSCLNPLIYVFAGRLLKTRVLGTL
Protocol: (§1) The agonistic or antagonistic action of substances can be quantified on the bradykinin receptor 1 (B1R) of the species human and rat using ectopically expressing cell lines (CHO K1 cells) and with the aid of a Ca^2+-sensitive dye (Fluo-4) using a fluorescent imaging plate reader (FLIPR). The indication in % activation is based on the Ca^2+ signal after addition of Lys-Des-Arg^9-bradykinin (0.5 nM) or Des-Arg^9-bradykinin (100 nM). Antagonists lead to suppression of the Ca^2+ influx after the addition of the agonist. % Inhibition compared with the maximum achievable inhibition is indicated.
(§2) The agonistic or antagonistic action of substances can be determined on the bradykinin receptor 1 (B1R) of the species human and rat using the following assay. According to this assay, the Ca^2+ influx through the channel is quantified with the aid of a Ca^2+-sensitive dye (Fluo-4 type, Molecular Probes Europe BV, Leiden, Netherlands) using a Fluorescent Imaging Plate Reader (FLIPR, Molecular Devices, Sunnyvale, USA).
(§3) Chinese hamster ovary cells (CHO K1 cells) which have been stably transfected with the human B1R gene (hB1R cells) or with the B1R gene of the rat (rB1R cells) are used. For functional studies, the cells are plated out on black 96-well plates having a clear base (BD Biosciences, Heidelberg, Germany or Greiner, Frickenhausen, Germany) in a density of 20,000-35,000 cells/well. The cells are incubated overnight at 37° C. and with 5% CO2 in culture medium (hB1R cells: Nutrient Mixture Ham's F12, Gibco Invitrogen GmbH, Karlsruhe, Germany or DMEM, Sigma-Aldrich, Taufkirchen, Germany; rB1R cells: D-MEM/F12, Gibco Invitrogen GmbH, Karlsruhe, Germany), with 10 vol. % FBS (fetal bovine serum, Gibco Invitrogen GmbH, Karlsruhe, Germany or PAN Biotech GmbH, Aidenbach, Germany).
(§4) On the following day, the cells are loaded for 60 minutes at 37° C. with 2.13 μM Fluo-4 (Molecular Probes Europe BV, Leiden, Netherlands) in HBSS buffer (Hank's buffered saline solution, Gibco Invitrogen GmbH, Karlsruhe, Germany) […] (Sigma-Aldrich, Taufkirchen, Germany) and 10 mM HEPES (Sigma-Aldrich, Taufkirchen, Germany). The plates are then washed twice with HBSS buffer, and HBSS buffer additionally containing 0.1% BSA (bovine serum albumin; Sigma-Aldrich, Taufkirchen, Germany), 5.6 mM glucose and 0.05% gelatin (Merck KGaA, Darmstadt, Germany) is added to the plates. After incubation for a further 20 minutes at room temperature, the plates are inserted into the FLIPR for Ca^2+ measurement.
(§5) Alternatively, washing is carried out with buffer A (15 mM HEPES, 80 mM NaCl, 5 mM KCl, 1.2 mM CaCl2, 0.7 mM MgSO4, 2 g/l glucose, 2.5 mM probenecid) followed by loading with buffer A with added 2.5 μM Fluo-4 and 0.025% Pluronic F127 (Sigma-Aldrich, Taufkirchen, Germany). The cells are then washed twice with buffer A and incubated for 30 minutes at room temperature with buffer A additionally containing 0.05% BSA and 0.05% gelatin and are then inserted into the FLIPR for Ca^2+ measurement.
(§6) The Ca^2+-dependent fluorescence is measured before and after the addition of substances (λex=488 nm, λem=540 nm). Quantification is carried out by measuring the highest fluorescence intensity (FC, fluorescence counts) over time.
(§7) The FLIPR protocol consists of two substance additions. Test substances (10 μM) are first pipetted onto the cells and the Ca^2+ influx is compared with the control (hB1R: Lys-Des-Arg^9-bradykinin >=50 nM; rB1R: Des-Arg^9-bradykinin 10 μM). This gives the activation in %, based on the Ca^2+ signal after addition of Lys-Des-Arg^9-bradykinin (>=50 nM) or Des-Arg^9-bradykinin (10 μM). After 10-20 minutes' incubation, Lys-Des-Arg^9-bradykinin (hB1R) or Des-Arg^9-bradykinin (rB1R) is applied in the concentration of the EC80, and the influx of Ca^2+ is likewise determined. Antagonists lead to suppression of the Ca^2+ influx. The % inhibition compared with the maximum achievable inhibition is calculated. […]

human B1R = target: T2, human B1R (Homo sapiens, UniProt P46663); assay: FLIPR Ca2+ influx assay, B1R antagonism, human (hB1R CHO K1 cells); type: cell-based
T2 construct: expressed in transfected cells; host or cells: CHO K1 cells (hB1R cells)
T2 sequence (P46663 1-353): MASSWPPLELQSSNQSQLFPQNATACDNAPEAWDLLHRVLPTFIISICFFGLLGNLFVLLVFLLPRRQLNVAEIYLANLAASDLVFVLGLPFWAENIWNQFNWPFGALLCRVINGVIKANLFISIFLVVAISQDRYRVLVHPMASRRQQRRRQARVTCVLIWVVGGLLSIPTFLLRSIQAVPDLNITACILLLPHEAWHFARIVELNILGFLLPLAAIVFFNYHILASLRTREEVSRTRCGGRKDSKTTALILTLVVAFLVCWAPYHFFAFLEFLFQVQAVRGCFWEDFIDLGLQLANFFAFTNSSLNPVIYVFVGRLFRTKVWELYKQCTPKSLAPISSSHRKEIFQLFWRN
Protocol: as §1, §2, §3, §4, §5, §6, §7

[1] = test substance 10 μM, CHO K1 cells stably transfected with rat B1R, agonist Des-Arg9-bradykinin at EC80, % inhibition compared with maximum achievable inhibition, read-out: B1R antagonism, rat [10 μM] % inhibition
[2] = test substance 10 μM, CHO K1 cells stably transfected with rat B1R, agonist Des-Arg9-bradykinin at EC80, % inhibition compared with maximum achievable inhibition

inhibition at 10 µM (B1R of the rat; [1]) [%] | B1R antagonism, rat [10 μM] % inhibition (B1R of the rat; [2]) [%] | Compound | other results
63 |  | O=C(CC(NS(=O)(=O)c1ccc2ccccc2c1)c1ccccc1)N1CCC(CCN2CCCC2)(c2cccnc2)CC1 (stereo not shown) [Example 1, N-(3-Oxo-1-phenyl-3-(4-(pyridin-3-yl)-4-(2-(pyrrolidin-1-yl)ethyl)piperidin-1-yl)propyl)naphthalene-2-sulfonamide] | inhibition at 10 µM (human B1R; test substance 10 μM, CHO K1 cells stably transfected with human B1R, agonist Lys-Des-Arg9-bradykinin at EC80, % inhibition compared with maximum achievable inhibition, read-out: B1R antagonism, human [10 μM] % inhibition): 104%
 |  | COc1cc(C)c(S(=O)(=O)N2CCCCC2COCC(=O)N2CCC(CCN3CCCC3)(c3cccnc3)CC2)c(C)c1 (stereo not shown) [Example 2, 2-((1-(4-Methoxy-2,6-dimethylphenylsulfonyl)piperidin-2-yl)methoxy)-1-(4-(pyridin-3-yl)-4-(2-(pyrrolidin-1-yl)ethyl)piperidin-1-yl)ethanone] | inhibition at 10 µM (B1R of the rat; CHO-K1, read-out: B1R antagonism, rat [10 μM] % inhibition): 102%; inhibition at 10 µM (human B1R; CHO-K1, read-out: B1R antagonism, human [10 μM] % inhibition): 103%
 |  | COc1cc(C)c(S(=O)(=O)N2c3ccccc3CCC2COCC(=O)N2CCC(CCCN3CCCC3)(c3cccnc3)CC2)c(C)c1 (stereo not shown) [Example 54, 2-[[1-[(4-Methoxy-2,6-dimethyl-phenyl)sulfonyl]-1,2,3,4-tetrahydro-quinolin-2-yl]-methoxy]-1-[4-pyridin-3-yl-4-(3-pyrrolidin-1-yl-propyl)-piperidin-1-yl]-ethanone] | B1R antagonism, human [10 μM] % inhibition (human B1R; test substance 10 μM, CHO K1 cells stably transfected with human B1R, agonist Lys-Des-Arg9-bradykinin at EC80, % inhibition compared with maximum achievable inhibition): 100%
 | 101 | O=C(CCCC1CCCCN1S(=O)(=O)c1ccccc1C(F)(F)F)N1CCC(CCCN2CCCC2)(c2ccncc2)CC1 (stereo not shown) [Example 59, 1-[4-Pyridin-4-yl-4-(3-pyrrolidin-1-yl-propyl)-piperidin-1-yl]-4-[1-[[2-(trifluoromethyl)-phenyl]sulfonyl]-piperidin-2-yl]-butan-1-one] | 
100 |  | COc1cc(C)c(S(=O)(=O)N2CCCCC2CCCC(=O)N2CCC(CCCN3CCCC3)(c3ccncc3)CC2)c(C)c1 (stereo not shown) [Example 62, 4-[1-[(4-Methoxy-2,6-dimethyl-phenyl)sulfonyl]-piperidin-2-yl]-1-[4-pyridin-4-yl-4-(3-pyrrolidin-1-yl-propyl)-piperidin-1-yl]-butan-1-one] | 
 | 102 | COc1cc(C)c(S(=O)(=O)N2CCCCC2CCCC(=O)N2CCC(CCCN3CCCC3)(c3ccncc3)CC2)c(C)c1 (stereo not shown) [Example 63, 4-[1-[(4-Methoxy-2,6-dimethyl-phenyl)sulfonyl]-piperidin-2-yl]-1-[4-pyridin-4-yl-4-(3-pyrrolidin-1-yl-propyl)-piperidin-1-yl]-butan-1-one] | 
46 |  | O=C(CCCC1CCCCN1S(=O)(=O)c1cccc2ccccc12)N1CCC(CCCN2CCCC2)(c2ccncc2)CC1 (stereo not shown) [Example 64, 4-[1-(Naphthalen-1-ylsulfonyl)-piperidin-2-yl]-1-[4-pyridin-4-yl-4-(3-pyrrolidin-1-yl-propyl)-piperidin-1-yl]-butan-1-one] | 
 | 63 | CS(=O)(=O)N(CCOCC(=O)N1CCC(CCCN2CCCC2)(c2ccncc2)CC1)C(c1ccccc1)c1ccccc1 [Example 65, N-Benzhydryl-N-[2-[2-oxo-2-[4-pyridin-4-yl-4-(3-pyrrolidin-1-yl-propyl)-piperidin-1-yl]-ethoxy]-ethyl]-methanesulfonic acid amide] | 
 | 99 | CS(=O)(=O)N(CCOCC(=O)N1CCC(CCCN2CCCC2)(c2ccncc2)CC1)C(c1ccccc1)c1ccccc1 [Example 66, N-Benzhydryl-N-[2-[2-oxo-2-[4-pyridin-4-yl-4-(3-pyrrolidin-1-yl-propyl)-piperidin-1-yl]-ethoxy]-ethyl]-methanesulfonic acid amide] | 
99 |  | COc1cc(C)c(S(=O)(=O)N2c3ccccc3OCC2COCC(=O)N2CCC(CCCN3CCCC3)(c3ccncc3)CC2)c(C)c1 (stereo not shown) [Example 69, 2-[[4-[(4-Methoxy-2,6-dimethyl-phenyl)sulfonyl]-3,4-dihydro-2H-[1,4]benzoxazin-3-yl]-methoxy]-1-[4-pyridin-4-yl-4-(3-pyrrolidin-1-yl-propyl)-piperidin-1-yl]-ethanone] | 
 | 100 | COc1cc(C)c(S(=O)(=O)N2c3ccccc3OCC2COCC(=O)N2CCC(CCCN3CCCC3)(c3ccncc3)CC2)c(C)c1 (stereo not shown) [Example 70, 2-[[4-[(4-Methoxy-2,6-dimethyl-phenyl)sulfonyl]-3,4-dihydro-2H-[1,4]benzoxazin-3-yl]-methoxy]-1-[4-pyridin-4-yl-4-(3-pyrrolidin-1-yl-propyl)-piperidin-1-yl]-ethanone] | 
84 |  | O=C(COCC1COc2ccccc2N1S(=O)(=O)c1ccccc1C(F)(F)F)N1CCC(CCCN2CCCC2)(c2cccnc2)CC1 (stereo not shown) [Example 73, 1-[4-Pyridin-3-yl-4-(3-pyrrolidin-1-yl-propyl)-piperidin-1-yl]-2-[[4-[[2-(trifluoromethyl)-phenyl]sulfonyl]-3,4-dihydro-2H-[1,4]benzoxazin-3-yl]-methoxy]-ethanone] | 
68 |  | O=C(COCC1COc2ccccc2N1S(=O)(=O)c1ccccc1C(F)(F)F)N1CCC(CCCN2CCCC2)(c2ccncc2)CC1 (stereo not shown) [Example 75, 1-[4-Pyridin-4-yl-4-(3-pyrrolidin-1-yl-propyl)-piperidin-1-yl]-2-[[4-[[2-(trifluoromethyl)-phenyl]sulfonyl]-3,4-dihydro-2H-[1,4]benzoxazin-3-yl]-methoxy]-ethanone] | 
101 |  | COc1cc(C)c(S(=O)(=O)N(CCOCC(=O)N2CCC(CCCN3CCCC3)(c3ccncc3)CC2)Cc2ccc3c(c2)OCOC3)c(C)c1 [Example 76, N-(4H-[1,3]Benzodioxin-7-yl-methyl)-4-methoxy-2,6-dimethyl-N-[2-[2-oxo-2-[4-pyridin-4-yl-4-(3-pyrrolidin-1-yl-propyl)-piperidin-1-yl]-ethoxy]-ethyl]-benzenesulfonic acid amide] | 

Reference: patent publication US8124624B2, “Substituted sulfonamide compounds” (Gruenenthal GmbH, priority 2008, dated 2012)
